# Numbers after ± are expanded uncertainties.
# Test: xn = mol fraction of the nth substance listed
# Conditions: 100 kPa, Liquid; for speed of sound: Frequency=3 MHz, Linear variable-path acoustic interferometer; for mass density: Pycnometric method
compound,measurement,setting,value
C=C(C)C(=O)OCCCC [butyl 2-methyl-2-propenoate] + N#Cc1ccccc1,speed of sound,"308.15 K, x2 = 0",1183 ± 1.7 m/s
same,speed of sound,"308.15 K, x2 = 0.0721",1193.2 ± 1.7 m/s
same,speed of sound,"308.15 K, x2 = 0.1507",1204.6 ± 1.7 m/s
same,speed of sound,"308.15 K, x2 = 0.2142",1213.9 ± 1.7 m/s
same,speed of sound,"308.15 K, x2 = 0.2876",1225 ± 1.7 m/s
same,speed of sound,"308.15 K, x2 = 0.3511",1234.8 ± 1.7 m/s
same,speed of sound,"308.15 K, x2 = 0.4297",1247.7 ± 1.7 m/s
same,speed of sound,"308.15 K, x2 = 0.4985",1259.6 ± 1.7 m/s
same,speed of sound,"308.15 K, x2 = 0.5715",1273.2 ± 1.7 m/s
same,speed of sound,"308.15 K, x2 = 0.6465",1288.5 ± 1.7 m/s
same,speed of sound,"308.15 K, x2 = 0.7147",1303.8 ± 1.7 m/s
same,speed of sound,"308.15 K, x2 = 0.7784",1319.5 ± 1.7 m/s
same,speed of sound,"308.15 K, x2 = 0.8558",1340.4 ± 1.7 m/s
same,speed of sound,"308.15 K, x2 = 0.9326",1362.9 ± 1.7 m/s
same,mass density,"308.15 K, x2 = 0",881.07 ± 1 kg/m3
same,mass density,"308.15 K, x2 = 0.0721",886.79 ± 1 kg/m3
same,mass density,"308.15 K, x2 = 0.1507",893.27 ± 1 kg/m3
same,mass density,"308.15 K, x2 = 0.2142",898.72 ± 1 kg/m3
same,mass density,"308.15 K, x2 = 0.2876",905.3 ± 1 kg/m3
same,mass density,"308.15 K, x2 = 0.3511",911.26 ± 1 kg/m3
same,mass density,"308.15 K, x2 = 0.4297",919 ± 1 kg/m3
same,mass density,"308.15 K, x2 = 0.4985",926.16 ± 1 kg/m3
same,mass density,"308.15 K, x2 = 0.5715",934.18 ± 1 kg/m3
same,mass density,"308.15 K, x2 = 0.6465",942.93 ± 1 kg/m3
same,mass density,"308.15 K, x2 = 0.7147",951.39 ± 1 kg/m3
same,mass density,"308.15 K, x2 = 0.7784",959.75 ± 1 kg/m3
same,mass density,"308.15 K, x2 = 0.8558",970.58 ± 1 kg/m3
same,mass density,"308.15 K, x2 = 0.9326",982.12 ± 1 kg/m3
same,speed of sound,"313.15 K, x2 = 0",1163.8 ± 1.7 m/s
same,speed of sound,"313.15 K, x2 = 0.0721",1174.3 ± 1.7 m/s
same,speed of sound,"313.15 K, x2 = 0.1507",1185.8 ± 1.7 m/s
same,speed of sound,"313.15 K, x2 = 0.2142",1195.3 ± 1.7 m/s
same,speed of sound,"313.15 K, x2 = 0.2876",1206.5 ± 1.7 m/s
same,speed of sound,"313.15 K, x2 = 0.3511",1216.5 ± 1.7 m/s
same,speed of sound,"313.15 K, x2 = 0.4297",1229.5 ± 1.7 m/s
same,speed of sound,"313.15 K, x2 = 0.4985",1241.5 ± 1.7 m/s
same,speed of sound,"313.15 K, x2 = 0.5715",1255.2 ± 1.7 m/s
same,speed of sound,"313.15 K, x2 = 0.6465",1270.7 ± 1.7 m/s
same,speed of sound,"313.15 K, x2 = 0.7147",1286.3 ± 1.7 m/s
same,speed of sound,"313.15 K, x2 = 0.7784",1302.3 ± 1.7 m/s
same,speed of sound,"313.15 K, x2 = 0.8558",1323.7 ± 1.7 m/s
same,speed of sound,"313.15 K, x2 = 0.9326",1346.9 ± 1.7 m/s
same,mass density,"313.15 K, x2 = 0",876.35 ± 1 kg/m3
same,mass density,"313.15 K, x2 = 0.0721",882.13 ± 1 kg/m3
same,mass density,"313.15 K, x2 = 0.1507",888.68 ± 1 kg/m3
same,mass density,"313.15 K, x2 = 0.2142",894.18 ± 1 kg/m3
same,mass density,"313.15 K, x2 = 0.2876",900.82 ± 1 kg/m3
same,mass density,"313.15 K, x2 = 0.3511",906.83 ± 1 kg/m3
same,mass density,"313.15 K, x2 = 0.4297",914.65 ± 1 kg/m3
same,mass density,"313.15 K, x2 = 0.4985",921.87 ± 1 kg/m3
same,mass density,"313.15 K, x2 = 0.5715",929.96 ± 1 kg/m3
same,mass density,"313.15 K, x2 = 0.6465",938.79 ± 1 kg/m3
same,mass density,"313.15 K, x2 = 0.7147",947.33 ± 1 kg/m3
same,mass density,"313.15 K, x2 = 0.7784",955.77 ± 1 kg/m3
same,mass density,"313.15 K, x2 = 0.8558",966.7 ± 1 kg/m3
same,mass density,"313.15 K, x2 = 0.9326",978.35 ± 1 kg/m3
same,speed of sound,"318.15 K, x2 = 0",1145.7 ± 1.7 m/s
same,speed of sound,"318.15 K, x2 = 0.0721",1156.5 ± 1.6 m/s
same,speed of sound,"318.15 K, x2 = 0.1507",1168.2 ± 1.6 m/s
same,speed of sound,"318.15 K, x2 = 0.2142",1177.8 ± 1.6 m/s
same,speed of sound,"318.15 K, x2 = 0.2876",1189.1 ± 1.6 m/s
same,speed of sound,"318.15 K, x2 = 0.3511",1199.1 ± 1.6 m/s
same,speed of sound,"318.15 K, x2 = 0.4297",1212.1 ± 1.6 m/s
same,speed of sound,"318.15 K, x2 = 0.4985",1224.2 ± 1.6 m/s
same,speed of sound,"318.15 K, x2 = 0.5715",1238 ± 1.6 m/s
same,speed of sound,"318.15 K, x2 = 0.6465",1253.7 ± 1.6 m/s
same,speed of sound,"318.15 K, x2 = 0.7147",1269.6 ± 1.7 m/s
same,speed of sound,"318.15 K, x2 = 0.7784",1285.9 ± 1.7 m/s
same,speed of sound,"318.15 K, x2 = 0.8558",1307.8 ± 1.7 m/s
same,speed of sound,"318.15 K, x2 = 0.9326",1331.5 ± 1.7 m/s
same,mass density,"318.15 K, x2 = 0",871.64 ± 1 kg/m3
same,mass density,"318.15 K, x2 = 0.0721",877.48 ± 1 kg/m3
same,mass density,"318.15 K, x2 = 0.1507",884.09 ± 1 kg/m3
same,mass density,"318.15 K, x2 = 0.2142",889.64 ± 1 kg/m3
same,mass density,"318.15 K, x2 = 0.2876",896.34 ± 1 kg/m3
same,mass density,"318.15 K, x2 = 0.3511",902.4 ± 1 kg/m3
same,mass density,"318.15 K, x2 = 0.4297",910.29 ± 1 kg/m3
same,mass density,"318.15 K, x2 = 0.4985",917.58 ± 1 kg/m3
same,mass density,"318.15 K, x2 = 0.5715",925.74 ± 1 kg/m3
same,mass density,"318.15 K, x2 = 0.6465",934.65 ± 1 kg/m3
same,mass density,"318.15 K, x2 = 0.7147",943.27 ± 1 kg/m3
same,mass density,"318.15 K, x2 = 0.7784",951.79 ± 1 kg/m3
same,mass density,"318.15 K, x2 = 0.8558",962.82 ± 1 kg/m3
same,mass density,"318.15 K, x2 = 0.9326",974.58 ± 1 kg/m3

# Source: the NIST ThermoML archive (doi:10.1016/j.jct.2018.12.031)
